According to patent US8895054B2, “Methods for joint lubrication and cartilage wear prevention making use of glycerophospholipids” (Technion Research and Development Foundation Ltd., priority 2006, dated 2014):
Values joined by “and” are separate entries in the source; they are usually repeats but may differ in a detail not shown here. Identical values can stand only once.

Tests used:
[1] = cited from earlier work; for Phase transition temperature (Tm): Table 1, SO to LD, phospholipid bilayers
[2] = Partial specific adiabatic compressibility of the lipid bilayer; assay type: physicochemical
Method: • (i) phospholipid (PL) concentration, using the modified Bartlett assay^37, 38; • (ii) size distribution, for liposomes under 1 μm by dynamic light scattering using an ALV-NIBS High Performance Particle Sizer (Langen, Germany) at a scattering angle of 173°; and for liposomes above 400 nm by light diffraction using a Beckman Coulter LS Particle Size Analyzer 13-320 (Fullerton, Calif.), equipped with polarization intensity differential scattering (PIDS) to provide a dynamic detection range from 40 nm to 2000 μm; • (iii) partial specific adiabatic compressibility, by calculation from the density of the liposome dispersion (using a DMA 5000 density meter, Anton Paar, Graz, Austria) and the velocity of an 5 MHz ultrasonic wave traveling through it (using a UCC-12 ultrasonic velocimeter, NDT Instruments, Jerusalem, Israel), as described by Garbuzenko et al.^39; and • (iv) structure, using scanning electron microscopy (SEM). Cartilage: Articular cartilage from healthy or osteoarthritis humans (aged 65 to 86 years) was obtained from femoral head fracture operations or total hip replacements. Tissue was classified as normal or pathological according to the visual diagnosis. For wear rate determination, only femoral heads with normal tissue were selected. Specimens were frozen at −20° C. until sample preparation in order to keep the mechanical properties close to those of live tissue. Pairs of cylindrical plugs, having 4 mm and 8 mm in diameter, each pair from the same region of the joint, were prepared. These cylindrical plugs, consisting of about 2 mm thick cartilage on top of about 8 mm long bone, were removed from the femoral head using a cork borer. The plugs were glued to holders through the bone part, using cyanoacrylate-based adhesive glue, leaving the cartilage projecting out of the holders. Thereafter, these plugs were refrozen at −20° C. until tested. Cartilage with completely intact and smooth surface was used. Friction and wear testing: Liposomes covering a wide range of sizes and concentrations, dispersed in HB, were screened as potential lubricants to reduce friction and wear between two discs of human cartilage at 24° C. and 37° C. […] For the a qualitative evaluation of wear, the effect of friction tests on the concentration of total PL in cartilage, and on the structure of the cartilage surface was determined. PL extraction and quantification: Total PL were extracted from cartilage specimens before and after lubrication tests, using the Bligh and Dyer extraction procedure^41, 42. […]

[3] = tested on: joints of osteoarthritis patients; conditions: injection into joints of osteoarthritis patients; cited from earlier work
[4] = LD phase (above Tm); cited from earlier work
[5] = tested on: human articular cartilage; assay: Wear determination test (GAG content in wear debris); conditions: added to ISF 1:1; after run-in period; 60 N (4.8 MPa)
Method: • (i) phospholipid (PL) concentration, using the modified Bartlett assay^37, 38; • (ii) size distribution, for liposomes under 1 μm by dynamic light scattering using an ALV-NIBS High Performance Particle Sizer (Langen, Germany) at a scattering angle of 173°; and for liposomes above 400 nm by light diffraction using a Beckman Coulter LS Particle Size Analyzer 13-320 (Fullerton, Calif.), equipped with polarization intensity differential scattering (PIDS) to provide a dynamic detection range from 40 nm to 2000 μm; • (iii) partial specific adiabatic compressibility, by calculation from the density of the liposome dispersion (using a DMA 5000 density meter, Anton Paar, Graz, Austria) and the velocity of an 5 MHz ultrasonic wave traveling through it (using a UCC-12 ultrasonic velocimeter, NDT Instruments, Jerusalem, Israel), as described by Garbuzenko et al.^39; and • (iv) structure, using scanning electron microscopy (SEM). […] For the a qualitative evaluation of wear, the effect of friction tests on the concentration of total PL in cartilage, and on the structure of the cartilage surface was determined. PL extraction and quantification: Total PL were extracted from cartilage specimens before and after lubrication tests, using the Bligh and Dyer extraction procedure^41, 42. […]

Compound	SO-to-LD phase transition temperature, Tm [1]	Phase transition temperature (Tm) [1]	other results
CCCCCCCCCCCCCCCC(=O)OCC(COP(=O)(O)OCC(O)CO)OC(=O)CCCCCCCCCCCCCCC (stereo not drawn) [DPPG]	41.4 °C		
CCCCCCCCCCCCCC(=O)OCC(COP(=O)(O)OCC(O)CO)OC(=O)CCCCCCCCCCCCC (stereo not drawn) [DMPG]	23 °C		
CCCCCCCCCCCCCCCC(=O)OC[C@H](COP(=O)([O-])OCC[N+](C)(C)C)OC(=O)CCCCCCCCCCCCCCC [DPPC, 1,2-dipalmitoyl-sn-glycero-3-phosphocholine]	41.4 °C	41.4 °C	partial specific adiabatic compressibility, K ([2]; 24° C.): 28.0 ×10^−6 mL/(g-atm); partial specific adiabatic compressibility, K ([2]; 37° C.): 31.2 ×10^−6 mL/(g-atm); duration of mobility improvement [3]: up to 14 weeks; side effects [3]: without major side effects; water molecules per headgroup [4]: ~9.7 water molecules per headgroup
CCCCCCCCCCCCCCC(=O)OC[C@H](COP(=O)([O-])OCC[N+](C)(C)C)OC(=O)CCCCCCCCCCCCCC [1,2-dipentadecanoyl-sn-glycero-3-phosphocoline]	33.0 °C		
CCCCCCCCCCCCC/C=C/[C@@H](O)[C@H](COP(=O)([O-])OCC[N+](C)(C)C)NC(=O)CCCCCCCCCCCCCCC [N-palmitoyl SM]	41.4 °C and 41.0 °C		
hyaluronic acid [HA]			reduction of constant wear rate compared with ISF alone [5]: ~10%
CCCCCCCCCCCCCC(=O)OC[C@H](COP(=O)([O-])OCC[N+](C)(C)C)OC(=O)CCCCCCCCCCCCC [DMPC, 1,2-dimyristoyl-sn-glycero-3-phosphocholine]	23.2 °C and 23 °C	23.2 °C	partial specific adiabatic compressibility, K ([2]; 24° C.): 46.4 ×10^−6 mL/(g-atm); partial specific adiabatic compressibility, K ([2]; 37° C.): 50.7 ×10^−6 mL/(g-atm); water molecules per headgroup [4]: ~9.7 water molecules per headgroup
CCCCCCCC/C=C\CCCCCCCC(=O)OC[C@H](COP(=O)([O-])OCC[N+](C)(C)C)OC(=O)CCCCCCC/C=C\CCCCCCCC [DOPC, 1,2-dioleoyl-sn-glycero-3-phosphocholine]		−21 °C	
